Assays:
CYP2C9 = CYP2C9 (Homo sapiens (Human), UniProt P11712); conditions: first-pass effect of the liver; cited from earlier work
[1] = target: human MT2 receptor membrane protein (Homo sapiens (Human), UniProt P49286); test: MT2 receptor binding test ([3H]-Melotonin competition)
Method: The receptors included a MT1/MT2 receptor and a 5-HT2C receptor. The test was divided into two parts: prescreening and rescreening. The results of prescreening were expressed as the percentage of binding, and the results of rescreening were expressed as the IC50 value (in M, i.e., mol/L).
(3) Tris-HCl buffer formulation: 50 mM Tris-HCl Buffer, 1 mM EDTA, 5 mM MgCl2, 0.1% NaN3, and then a certain proportion of PMSF was added to make pH 7.4.
(4) The example compound to be tested was dissolved in DMSO and formulated as a stock solution of 10^−2 M, and then diluted with distilled water to a concentration gradient of […]. The prescreening of the MT receptor binding test was performed at the concentration of 10^−5 M; the prescreening of the 5-HT2C receptor binding test was performed at the concentrations of 10^−5 and 10^−7 M.
The statistical analysis was performed using GraphPad Prism 5.0 software. The formula for receptor binding test was: inhibition (%)=[(total CPM of binding−CPM of tube with drug)/(total CPM of binding−non-specific CPM)]×100%, wherein CPM was count of a radioactive intensity.
10 μL of receptor membrane protein MT1 or MT2 was added to all the tubes. In non-specific binding tubes, 50 μL of a corresponding unlabeled ligand Ago at a concentration of 10^4 M was added to a final concentration of 10 μM, and pre-reacted for 30 minutes. In test tubes, 30 μL of test drug (MT1: a concentration of 10^4-10^−10 M, MT2: a concentration of […]) was added, respectively; all tubes were added with 40 μL [^3H]-Melotonin, respectively. […] The filter paper was taken out and dried by baking, and then placed in a scintillation bottle. 1 mL of the scintillation liquid was added, and the radioactive intensity was measured by a liquid scintillation counter.

SD rats = test: Anxiety behavior model of repeatedly administrated rat: Vogel drinking conflict test; format: in vivo; conditions: D18, within 3 minutes
Method: The requirements for test animals, drug formulation and administration were the same as those of the rat chronic mild stress model.
Instruments: Vogel drinking anxiety device for rat and O-maze device for rat were manufactured by Shanghai XinRuan Company. The rat feeding chamber was a home-made white plastic box (60×45×25 cm).
The rats were administrated continuously by i.g. once a day. A novelty-suppressed feeding test, a Vogel drinking conflict test, and an O-maze test were performed on a different day, respectively. Each behavior test was performed at 9:00-12:00, and the administration time was 16:00-17:00. The test process was as follows: D12, novelty-suppressed feeding test (animals were fasted for 48 hours before the test); D18, Vogel drinking conflict test (animals were banned from water for 48 hours before the test); D21, O-maze test.
The Vogel drinking anxiety device for rat connected a drinking tube of a water bottle, an electric grid and a current loop of a controller through the animal body when rat drank water. The controller can automatically record the number of times the animal drank water and can deliver an electric shock to foot sole. The rat was individually placed in the test chamber after 48 hours of water deprivation. When the animal drank 20 times in the test chamber, the controller started timing for 3 minutes, and every 20 times the rat drank, one electric shock to foot sole was delivered (0.35 mA for 2 s). The device automatically recorded the number of times the rat drank water with electric shock within 3 minutes.

human MT2 receptor membrane protein, sequence (P49286 whole entry): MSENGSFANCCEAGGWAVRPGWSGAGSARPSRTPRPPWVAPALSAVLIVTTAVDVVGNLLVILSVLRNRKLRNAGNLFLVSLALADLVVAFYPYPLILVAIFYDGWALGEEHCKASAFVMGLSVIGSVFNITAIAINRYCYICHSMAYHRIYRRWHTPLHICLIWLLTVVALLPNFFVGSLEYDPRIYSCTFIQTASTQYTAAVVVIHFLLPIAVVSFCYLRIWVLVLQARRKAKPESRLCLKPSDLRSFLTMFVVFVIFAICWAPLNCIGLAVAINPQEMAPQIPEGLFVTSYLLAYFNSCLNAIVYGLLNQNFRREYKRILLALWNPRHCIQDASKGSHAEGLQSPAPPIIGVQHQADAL
CYP2C9, sequence (P11712 whole entry): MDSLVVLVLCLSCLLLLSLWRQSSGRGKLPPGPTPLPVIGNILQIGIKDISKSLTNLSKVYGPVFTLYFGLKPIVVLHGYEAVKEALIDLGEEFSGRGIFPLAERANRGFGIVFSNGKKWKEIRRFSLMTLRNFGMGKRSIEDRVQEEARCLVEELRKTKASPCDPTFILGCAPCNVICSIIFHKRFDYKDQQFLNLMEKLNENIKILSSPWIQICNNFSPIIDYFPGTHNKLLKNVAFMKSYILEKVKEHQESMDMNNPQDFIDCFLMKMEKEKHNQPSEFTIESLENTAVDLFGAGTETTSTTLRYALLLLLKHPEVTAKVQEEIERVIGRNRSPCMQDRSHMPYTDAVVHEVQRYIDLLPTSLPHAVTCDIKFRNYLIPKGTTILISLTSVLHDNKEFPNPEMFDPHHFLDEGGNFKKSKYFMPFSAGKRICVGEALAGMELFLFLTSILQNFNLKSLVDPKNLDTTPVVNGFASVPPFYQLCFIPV

Compound | share metabolized by CYP2C9 (CYP2C9) | MT2 binding ratio (I %) ([1]; prescreening, 10^−5 M) [%] | IC50 ([1]; rescreening) [nM] | Number of times drinking water with electric shock (s) (SD rats; 5 mg/kg i.g. once a day) | Number of times drinking water with electric shock (s) (SD rats; 10 mg/kg i.g. once a day) | Number of times drinking water with electric shock (s) (SD rats; 20 mg/kg i.g. once a day) | Number of times drinking water with electric shock (s) (SD rats; 40 mg/kg i.g. once a day)
COc1ccc2cccc(CCNC(C)=O)c2c1 [Agomelatine, reference compound] | about 10% |  |  |  |  |  | 
[2H]C([2H])([2H])Oc1cc2c(CCNC(C)=O)cccc2cc1Cl [Example 1, N-(2-(6-chloro-7-deuteromethoxy-naphthalen-1-yl)ethyl)acetamide] |  | 98 | 0.72 ± 0.13 | 76 ± 11 number of licks (count) | 159 ± 14 number of licks (count) | 172 ± 25 number of licks (count) | 213 ± 20 number of licks (count)

Reference: patent US11980598B2, “N-(2-(substituted-naphth-1-yl)ethyl) substituted amide compound, preparation and uses thereof” (BEIJING GREATWAY PHARMACEUTICAL TECHNOLOGY CO., LTD., priority 2017, dated 2024)
